Type in all cases: biochemical
In test [1] the target is T1, JAK3 (catalytic domain, His-tag) (Homo sapiens, UniProt P52333).
T1 construct: All four purified enzymes contain only the catalytic domain; His (N); purchased Carna Biosciences, Inc; host or cells: baculovirus expression system
The experiment in a line: JAK kinase assay (HTRF, phosphorylation of TK substrate-biotin), JAK3. The note with it: ATP at Km (2 μM). Summed up: (§1)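 EC50 values come from HTRF detection of phospho-biotin-TK peptide (1 μM) after 20-30 min RT reactions in Hepes pH 7.0 buffer with 0.75% DMSO. ATP was at Km for each enzyme: 7 μM JAK1, 4 μM JAK2, 2 μM JAK3, 13 μM TYK2. SEB (50 nM) was added for JAK1 and TYK2 only.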
Background: Time-resolved FRET reads energy transfer from a long-lived donor to a nearby acceptor.

Test [2] addresses T2, TYK2 (aa 871-1187, catalytic domain, GST-tag) (Homo sapiens, UniProt P29597).
T2 construct: JAK1 (aa 850-1154) and TYK2 (aa 871-1187) are expressed with an N-terminally fused GST-tag; GST (N); purchased Carna Biosciences, Inc; host or cells: baculovirus expression system
T2 sequence (P29597 871-1187): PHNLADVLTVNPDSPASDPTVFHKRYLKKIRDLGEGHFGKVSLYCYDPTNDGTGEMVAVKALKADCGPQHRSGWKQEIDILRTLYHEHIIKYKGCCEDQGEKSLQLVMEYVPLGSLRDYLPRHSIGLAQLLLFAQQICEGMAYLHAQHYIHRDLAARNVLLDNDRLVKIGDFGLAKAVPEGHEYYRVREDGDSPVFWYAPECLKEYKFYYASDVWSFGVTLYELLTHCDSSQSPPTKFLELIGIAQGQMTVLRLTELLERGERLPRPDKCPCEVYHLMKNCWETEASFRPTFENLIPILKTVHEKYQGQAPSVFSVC
The experiment in a line: JAK kinase assay (HTRF, phosphorylation of TK substrate-biotin), TYK2. The settings on record: ATP at Km (13 μM). In outline:
as §1

Test [3] concerns the target T3, JAK1 (aa 850-1154, catalytic domain, GST-tag) (Homo sapiens, UniProt P23458).
T3 construct: JAK1 (aa 850-1154) and TYK2 (aa 871-1187) are expressed with an N-terminally fused GST-tag; GST (N); purchased Carna Biosciences, Inc; host or cells: baculovirus expression system
In words: JAK kinase assay (HTRF, phosphorylation of TK substrate-biotin), JAK1. The settings on record: ATP at Km (7 μM). Summed up: as §1

Test [4] has as its target T4, JAK2 (catalytic domain, His-tag) (Homo sapiens, UniProt O60674).
T4 construct: All four purified enzymes contain only the catalytic domain; His (N); purchased Carna Biosciences, Inc; host or cells: baculovirus expression system
In words: JAK kinase assay (HTRF, phosphorylation of TK substrate-biotin), JAK2. The settings on record: ATP at Km (4 μM). Summed up:
as §1

Where [5] appears, read: read-out: JAK3 kinase inhibitory activity (EC50 indicator).
The mark [6] stands for this setting: read-out: TYK2 kinase inhibitory activity (EC50 indicator).
[7] abbreviates: read-out: JAK1 kinase inhibitory activity (EC50 indicator).
Where [8] appears, read: read-out: JAK2 kinase inhibitory activity (EC50 indicator).
Where [9] appears, read: HTRF assay, read-out: JAK3 kinase inhibitory activity (EC50 indicator).
Setting [10] is: HTRF assay, read-out: TYK2 kinase inhibitory activity (EC50 indicator).
Where [11] appears, read: HTRF assay, read-out: JAK1 kinase inhibitory activity (EC50 indicator).
Setting [12] is: HTRF assay, read-out: JAK2 kinase inhibitory activity (EC50 indicator).
[13] abbreviates: HTRF assay, read-out: JAK3 kinase inhibitory activity (EC50).
Setting [14] is: HTRF assay, read-out: TYK2 kinase inhibitory activity (EC50).
[15] abbreviates: HTRF assay, read-out: JAK1 kinase inhibitory activity (EC50).
Where [16] appears, read: HTRF assay, read-out: JAK2 kinase inhibitory activity (EC50).

Molecules are shown by their SMILES. Like-named read-outs stand apart in the source and are kept apart here.

T3 sequence (P23458 850-1154): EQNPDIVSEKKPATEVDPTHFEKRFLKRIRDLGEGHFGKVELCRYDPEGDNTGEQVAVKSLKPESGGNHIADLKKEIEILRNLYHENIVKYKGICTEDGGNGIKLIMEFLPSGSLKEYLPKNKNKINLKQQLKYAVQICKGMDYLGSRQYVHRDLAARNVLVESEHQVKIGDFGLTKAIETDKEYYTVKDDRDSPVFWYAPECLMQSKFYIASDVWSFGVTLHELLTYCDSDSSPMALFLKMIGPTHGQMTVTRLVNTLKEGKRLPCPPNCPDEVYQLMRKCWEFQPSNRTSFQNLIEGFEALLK
T4 sequence (O60674 849-1124 limits assumed): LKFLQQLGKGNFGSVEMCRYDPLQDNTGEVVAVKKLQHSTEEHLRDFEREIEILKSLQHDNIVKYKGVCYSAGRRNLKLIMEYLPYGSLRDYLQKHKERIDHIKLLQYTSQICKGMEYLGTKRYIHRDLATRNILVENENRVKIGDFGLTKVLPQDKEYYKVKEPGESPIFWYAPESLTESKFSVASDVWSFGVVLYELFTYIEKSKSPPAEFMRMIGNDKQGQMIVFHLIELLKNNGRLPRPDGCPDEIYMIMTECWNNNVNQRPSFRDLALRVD
T1 sequence (P52333 822-1111 limits assumed): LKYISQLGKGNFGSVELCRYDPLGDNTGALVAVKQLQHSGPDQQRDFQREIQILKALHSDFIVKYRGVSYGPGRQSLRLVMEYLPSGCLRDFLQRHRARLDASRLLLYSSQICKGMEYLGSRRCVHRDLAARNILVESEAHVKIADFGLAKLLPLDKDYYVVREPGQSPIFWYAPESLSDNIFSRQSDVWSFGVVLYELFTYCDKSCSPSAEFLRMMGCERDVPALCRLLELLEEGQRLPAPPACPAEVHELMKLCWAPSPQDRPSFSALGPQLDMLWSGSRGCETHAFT

As for `O=C(C1Cc2ccccc21)N1C2CCC1CN(c1ncnc3[nH]ccc13)C2` (stereo not shown) [Example 132, Bicyclo[4.2.0]octa-1(6),2,4-trien-7-yl-[3-(7H-pyrrolo[2,3-d]pyrimidin-4-yl)-3,8-diaza-bicyclo[3.2.1]oct-8-yl]-methanone], the EC50 in test [1] (setting [5]) was 100 to 500 nM; in test [2] (setting [6]) it was > 500 nM; in test [3] (setting [7]), 100 to 500 nM; in test [4] (setting [8]), 100 to 500 nM.

Take `NS(=O)(=O)c1ccc(C(=O)C(=O)N2CCN(c3ncnc4[nH]ccc34)CC23CC3)cc1` [Example 63, 4-{2-Oxo-2-[7-(7H-pyrrolo[2,3-d]pyrimidin-4-yl)-4,7-diaza-spiro[2.5]oct-4-yl]-acetyl}-benzenesulfonamide]: the EC50 in test [1] (setting [5]), in test [2] (setting [6]), in test [3] (setting [7]) and in test [4] (setting [8]) was < 100 nM each time.

Regarding `N#CCCC(=O)N1CCN(c2ncnc3[nH]cc(Cl)c23)CC12CC2` [Example 325, 4-[7-(5-Chloro-7H-pyrrolo[2,3-d]pyrimidin-4-yl)-4,7-diaza-spiro[2.5]oct-4-yl]-4-oxo-butyronitrile], the EC50 was 100 to 500 nM in test [1] (setting [9]), > 500 nM in test [2] (setting [10]), > 500 nM in test [3] (setting [11]) and 100 to 500 nM in test [4] (setting [12]).

As to `O=C(c1ccc(S(=O)(=O)NCCc2cccs2)cc1)N1CCN(c2ncnc3[nH]ccc23)CC12CC2` [Example 397, 4-[7-(7H-Pyrrolo[2,3-d]pyrimidin-4-yl)-4,7-diaza-spiro[2.5]octane-4-carbonyl]-N-(2-thiophen-2-yl-ethyl)-benzenesulfonamide], the EC50 is 100 to 500 nM in test [1] (setting [9]), 100 to 500 nM in test [2] (setting [10]), < 100 nM in test [3] (setting [11]) and < 100 nM in test [4] (setting [12]).

`N#Cc1ccc(C(=O)N2CCN(c3ncnc4[nH]cc(Cl)c34)CC23CC3)cc1` [Example 315, 4-[7-(5-Chloro-7H-pyrrolo[2,3-d]pyrimidin-4-yl)-4,7-diaza-spiro[2.5]octane-4-carbonyl]-benzonitrile]: the EC50 in test [1] (setting [9]), in test [2] (setting [10]), in test [3] (setting [11]) and in test [4] (setting [12]) was > 500 nM throughout.

Take `O=C(c1cnc2ccccc2n1)N1CCN(c2ncnc3[nH]cc(Cl)c23)CC12CC2` [Example 317, [7-(5-Chloro-7H-pyrrolo[2,3-d]pyrimidin-4-yl)-4,7-diaza-spiro[2.5]oct-4-yl]-quinoxalin-2-yl-methanone]: the half-maximal effective concentration (EC50) was > 500 nM in test [1] (setting [9]), > 500 nM in test [2] (setting [10]), > 500 nM in test [3] (setting [11]) and 100 to 500 nM in test [4] (setting [12]).

Consider `N#Cc1ccc(C(=O)N2[C@@H]3CC[C@@H]2CN(c2ncnc4[nH]ccc24)C3)cc1F` [Example 350, 2-Fluoro-4-[3-(7H-pyrrolo[2,3-d]pyrimidin-4-yl)-3,8-diaza-bicyclo[3.2.1]octane-8-carbonyl]-benzonitrile], for which the EC50 in test [1] (setting [9]) was < 100 nM; in test [2] (setting [10]), 100 to 500 nM; in test [3] (setting [11]), < 100 nM; in test [4] (setting [12]), < 100 nM.

For the compound `N#CCc1ccc(CC(=O)N2CCN(c3nc(N)nc4[nH]ccc34)CC23CC3)cc1` [Example 307, (4-{2-[7-(2-Amino-7H-pyrrolo[2,3-d]pyrimidin-4-yl)-4,7-diaza-spiro[2.5]oct-4-yl]-2-oxo-ethyl}-phenyl)-acetonitrile], the EC50 in test [1] (setting [9]) is 100 to 500 nM; in test [2] (setting [10]), > 500 nM; in test [3] (setting [11]), 100 to 500 nM; in test [4] (setting [12]) it was 100 to 500 nM.

For the compound `CC(=O)N1CCC(C(=O)N2CCN(c3ncnc4[nH]ccc34)CC23CC3)CC1` [Example 43, 1-{4-[7-(7H-Pyrrolo[2,3-d]pyrimidin-4-yl)-4,7-diazaspiro[2.5]octane-4-carbonyl]piperidin-1-yl}ethanone], the EC50 is 100 to 500 nM in test [1] (setting [5]), > 500 nM in test [2] (setting [6]), 100 to 500 nM in test [3] (setting [7]) and 100 to 500 nM in test [4] (setting [8]).

Regarding `CN(CCC#N)S(=O)(=O)N1CCN(c2ncnc3[nH]ccc23)CC12CC2` [Example 458, 7-(7H-Pyrrolo[2,3-d]pyrimidin-4-yl)-4,7-diaza-spiro[2.5]octane-4-sulfonic acid (2-cyano-ethyl)-methyl-amide], the EC50 in test [1] (setting [13]), in test [2] (setting [14]), in test [3] (setting [15]) and in test [4] (setting [16]) was < 100 nM throughout.

For `O=C(Oc1ccc(Cl)cc1)N1CCN(c2ncnc3[nH]ccc23)CC12CC2` [Example 446, 7-(7H-Pyrrolo[2,3-d]pyrimidin-4-yl)-4,7-diaza-spiro[2.5]octane-4-carboxylic acid 4-chloro-phenyl ester], the EC50 is 100 to 500 nM in test [1] (setting [13]), > 500 nM in test [2] (setting [14]), < 100 nM in test [3] (setting [15]) and < 100 nM in test [4] (setting [16]).

As for `O=C(c1cc2ccccc2[nH]1)N1CCN(c2ncnc3[nH]ccc23)CC12CC2` [Example 55, (1H-Indol-2-yl)-[7-(7H-pyrrolo[2,3-d]pyrimidin-4-yl)-4,7-diazaspiro[2.5]oct-4-yl]methanone], the EC50 is < 100 nM in test [1] (setting [5]), 100 to 500 nM in test [2] (setting [6]), < 100 nM in test [3] (setting [7]) and < 100 nM in test [4] (setting [8]).

Take `O=C(c1cc2ccccc2s1)N1CCN(c2ncnc3[nH]ccc23)CC12CCCC2` [Example 75, Benzo[b]thiophen-2-yl-[9-(7H-pyrrolo[2,3-d]pyrimidin-4-yl)-6,9-diaza-spiro[4.5]dec-6-yl]-methanone]: the EC50 in test [1] (setting [5]), in test [2] (setting [6]), in test [3] (setting [7]) and in test [4] (setting [8]) was > 500 nM throughout.

With `CNS(=O)(=O)c1csc(C(=O)N2CCN(c3ncnc4[nH]ccc34)CC23CC3)c1C` [Example 376, 4-Methyl-5-[7-(7H-pyrrolo[2,3-d]pyrimidin-4-yl)-4,7-diaza-spiro[2.5]octane-4-carbonyl]-thiophene-3-sulfonic acid methylamide], the EC50 in test [1] (setting [9]) is < 100 nM; in test [2] (setting [10]), 100 to 500 nM; in test [3] (setting [11]), < 100 nM; in test [4] (setting [12]) it was < 100 nM.

As for `Cn1c(C(=O)N2CCN(c3ncnc4[nH]ccc34)CC23CC3)ccc1S(N)(=O)=O` [Example 187, 1-Methyl-5-[7-(7H-pyrrolo[2,3-d]pyrimidin-4-yl)-4,7-diaza-spiro[2.5]octane-4-carbonyl]-1H-pyrrole-2-sulfonic acid amide], the EC50 in test [1] (setting [5]), in test [2] (setting [6]), in test [3] (setting [7]) and in test [4] (setting [8]) was < 100 nM in each case.

For `NC(=O)c1ccc(C(=O)N2CCN(c3ncnc4[nH]ccc34)CC23CC3)cc1` [Example 49, 4-[7-(7H-Pyrrolo[2,3-d]pyrimidin-4-yl)-4,7-diazaspiro[2.5]octane-4-carbonyl]benzamide], the EC50 in test [1] (setting [5]) was 100 to 500 nM; in test [2] (setting [6]) it was > 500 nM; in test [3] (setting [7]), < 100 nM; in test [4] (setting [8]), < 100 nM.

As to `O=C(c1ccc2sccc2c1)N1CCN(c2ncnc3[nH]ccc23)CC12CC2` [Example 106, Benzo[b]thiophen-5-yl-[7-(7H-pyrrolo[2,3-d]pyrimidin-4-yl)-4,7-diaza-spiro[2.5]oct-4-yl]-methanone], the EC50 in test [1] (setting [5]) was 100 to 500 nM; in test [2] (setting [6]), 100 to 500 nM; in test [3] (setting [7]), < 100 nM; in test [4] (setting [8]) it was < 100 nM.

On to `S=C(NCc1ccccc1)N1[C@@H]2CC[C@H]1CN(c1ncnc3[nH]ccc13)C2` [Example 11, 3-(7H-Pyrrolo[2,3-d]pyrimidin-4-yl)-3,8-diazabicyclo[3.2.1]octane-8-carbothioic acid benzylamide], for which the EC50 in test [1] (setting [5]) was 100 to 500 nM; in test [2] (setting [6]), > 500 nM; in test [3] (setting [7]), < 100 nM; in test [4] (setting [8]), < 100 nM.

Consider `O=C(c1ccc2cc[nH]c2c1)N1[C@@H]2CC[C@@H]1CN(c1ncnc3[nH]ccc13)C2` [Example 357, (1H-Indol-6-yl)-[3-(7H-pyrrolo[2,3-d]pyrimidin-4-yl)-3,8-diaza-bicyclo[3.2.1]oct-8-yl]-methanone], for which the EC50 in test [1] (setting [9]) is < 100 nM; in test [2] (setting [10]), 100 to 500 nM; in test [3] (setting [11]) it was < 100 nM; in test [4] (setting [12]) it was < 100 nM.

A word on the EC50: it is the concentration giving half of the maximal effect.

These data come from patent publication US9346809B2 (LEO PHARMA A/S, priority 2009, dated 2016).
